Like-named read-outs stand apart in the source and are kept apart here.
Columns and labels:
[1] = cited from earlier work
[2] = human, in vivo; cited from earlier work
[3] = Amide hydrolysis by minipig liver microsomes; conditions: 1 mg/ml protein, 0.5 µM amide, pH 7.4, up to 120 min, no NADPH
From the text: (§1) Pooled subcellular fractions of male Sprague-Dawley rat liver S9 fractions (10 donors), male Sprague-Dawley Aroclor 1254 induced rat liver S9 fractions (20 donors), human liver S9 fractions (mixed gender 10 donors), male Gottingen minipig liver microsomes (3 donors) and male Gottingen minipig liver S9 fractions (3 donors) were purchased from BioreclamationIVT (West Sussex, UK). Cryopreserved primary human hepatocytes (mixed gender 10 donors) were also purchased from BioreclamationIVT. Human CES1b, CES1c and CES2 Supersomes and human liver microsomes (mixed gender 150 donors) were purchased from Corning (Flintshire, UK). […]
(§2) LC-MS/MS analysis was performed using a Waters UPLC instrument with an Acquity^TM binary solvent manager, Acquity^TM 4-position heated column manager and 2777 Ultra High Pressure Autosampler coupled to a Xevo-TQ MS triple quadrupole mass spectrometer (Waters Ltd, Herts, UK) with an electrospray ionisation (ESI) source. […] Incubations where the total parent amide decreased below 80% of the t0 baseline sample or the amine metabolite was detected were determined to be hydrolysed.

AADAC = conditions: cited from earlier work
[4] = From the text: as §1, §2

For CCCNC(C)C(=O)Nc1ccccc1C (stereo not shown) [prilocaine, Prilocaine], the “amide hydrolysis in humans in vivo” value [1] is listed as “undergo hydrolysis”.
For Nc1ccc([N+](=O)[O-])c(C(F)(F)F)c1 [3-trifluoromethyl-4-nitroaniline], the hepatotoxicity [2] is listed as “associated with hepatotoxicity”.
For CC(O)(CS(=O)(=O)c1ccc(F)cc1)C(=O)Nc1ccc(C#N)c(C(F)(F)F)c1 (stereo not shown) [bicalutamide, Bicalutamide], the hepatotoxicity [2] is given as “few cases of hepatotoxicity”.
In the case of CCC(=O)Nc1ccc(Cl)c(Cl)c1 [propanil, Propanil], the “amide hydrolysis in humans in vivo” value ([1]; human) is given as “undergo hydrolysis” and the amide hydrolysis [3] is given as “successful hydrolysis”.
In the case of CC(=O)Nc1ccc(O)cc1 [paracetamol, Paracetamol], the “dose hydrolysed in humans in vivo” value [1] is given as 1–2%.
In the case of CC(C)C(=O)Nc1ccc([N+](=O)[O-])c(C(F)(F)F)c1 [flutamide, Flutamide], the “enzyme mainly responsible for hydrolysis” value (AADAC) is listed as “AADAC”.
In the case of CC(=O)Nc1ccccc1 [acetanilide, Acetanilide], the “amide hydrolysis in humans in vivo” value [1] is listed as “has been observed” and the “dose hydrolysed in humans in vivo” value [1] is listed as “approximately 10%”.
With O=C(CCl)Nc1ccccc1 [2-chloro-N-phenylacetamide] the “change in rate of hydrolysis as a result of Aroclor 1254 induction” value [4] was “enhanced rate of hydrolysis”.
